Measurements: PubChem BioAssay (NCI)
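Five concentrations, 48 hours, 96-well plates. Here, GI50 denotes the concentration required for 50% inhibition of growth. The concentration for full growth arrest is given as TGI.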

Tests used:
Assay in all cases: NCI tumour cell line growth inhibition, 48 h
786-0 renal = tested on: 786-0 renal
A498 renal = tested on: A498 renal
A549 NSCLC = tested on: A549 NSCLC
ACHN renal = tested on: ACHN renal
BT-549 breast = tested on: BT-549 breast
CAKI-1 renal = tested on: CAKI-1 renal
CCRF-CEM leukemia = tested on: CCRF-CEM leukemia
COLO 205 colon = tested on: COLO 205 colon
DU-145 prostate = tested on: DU-145 prostate
EKVX NSCLC = tested on: EKVX NSCLC
HCC-2998 colon = tested on: HCC-2998 colon
HCT-116 colon = tested on: HCT-116 colon
HCT-15 colon = tested on: HCT-15 colon
HL-60(TB) leukemia = tested on: HL-60(TB) leukemia
HOP-62 NSCLC = tested on: HOP-62 NSCLC
HOP-92 NSCLC = tested on: HOP-92 NSCLC
HS 578T breast = tested on: HS 578T breast
HT29 colon = tested on: HT29 colon
IGROV1 ovarian = tested on: IGROV1 ovarian
K-562 leukemia = tested on: K-562 leukemia
KM12 colon = tested on: KM12 colon
LOX IMVI melanoma = tested on: LOX IMVI melanoma
M14 melanoma = tested on: M14 melanoma
MALME-3M melanoma = tested on: MALME-3M melanoma
MCF7 breast = tested on: MCF7 breast
MDA-MB-231 breast = tested on: MDA-MB-231 breast
MDA-MB-435 = tested on: MDA-MB-435
MOLT-4 leukemia = tested on: MOLT-4 leukemia
NCI-H226 lung = tested on: NCI-H226 lung
NCI-H23 lung = tested on: NCI-H23 lung
NCI-H460 lung = tested on: NCI-H460 lung
NCI-H522 lung = tested on: NCI-H522 lung
NCI/ADR-RES ovarian = tested on: NCI/ADR-RES ovarian
OVCAR-3 ovarian = tested on: OVCAR-3 ovarian
OVCAR-4 ovarian = tested on: OVCAR-4 ovarian
OVCAR-5 ovarian = tested on: OVCAR-5 ovarian
OVCAR-8 ovarian = tested on: OVCAR-8 ovarian
PC-3 prostate = tested on: PC-3 prostate
RPMI-8226 leukemia = tested on: RPMI-8226 leukemia
RXF 393 renal = tested on: RXF 393 renal
SF-268 CNS = tested on: SF-268 CNS
SF-295 CNS = tested on: SF-295 CNS
SF-539 CNS = tested on: SF-539 CNS
SK-MEL-2 melanoma = tested on: SK-MEL-2 melanoma
SK-MEL-28 melanoma = tested on: SK-MEL-28 melanoma
SK-MEL-5 melanoma = tested on: SK-MEL-5 melanoma
SK-OV-3 ovarian = tested on: SK-OV-3 ovarian
SN12C renal = tested on: SN12C renal
SNB-19 CNS = tested on: SNB-19 CNS
SNB-75 CNS = tested on: SNB-75 CNS
SR leukemia = tested on: SR leukemia
SW-620 colon = tested on: SW-620 colon
T-47D breast = tested on: T-47D breast
TK-10 renal = tested on: TK-10 renal
U251 CNS = tested on: U251 CNS
UACC-257 melanoma = tested on: UACC-257 melanoma
UACC-62 melanoma = tested on: UACC-62 melanoma
UO-31 renal = tested on: UO-31 renal

Question: For `N#CSCc1ccc(Cl)c(CSC#N)c1`, which GI50 (786-0 renal) is on record?
Answer: 0.301 µM

Question: What about the TGI (786-0 renal) of the same compound?
Answer: 17.4 µM

Question: What about the GI50 (A498 renal) of the same compound?
Answer: 0.273 µM

Question: What about the TGI (A498 renal) of the same compound?
Answer: 4.04 µM

Question: What about the GI50 (A549 NSCLC) of the same compound?
Answer: 1.44 µM

Question: And the TGI (A549 NSCLC)?
Answer: > 58.4 µM

Question: And the GI50 (ACHN renal)?
Answer: 0.0865 µM

Question: And the TGI (ACHN renal)?
Answer: 22.6 µM

Question: What about the GI50 (BT-549 breast) of the same compound?
Answer: 0.303 µM

Question: What about the TGI (BT-549 breast) of the same compound?
Answer: 11.2 µM

Question: What about the GI50 (CAKI-1 renal) of the same compound?
Answer: 0.169 µM

Question: What about the TGI (CAKI-1 renal) of the same compound?
Answer: 21.7 µM

Question: What about the GI50 (CCRF-CEM leukemia) of the same compound?
Answer: 0.103 µM

Question: What about the TGI (CCRF-CEM leukemia) of the same compound?
Answer: 23.6 µM

Question: What about the GI50 (COLO 205 colon) of the same compound?
Answer: 0.0513 µM

Question: What about the TGI (COLO 205 colon) of the same compound?
Answer: 11.4 µM

Question: And the GI50 (DU-145 prostate)?
Answer: 0.121 µM

Question: What about the TGI (DU-145 prostate) of the same compound?
Answer: 12.7 µM

Question: And the GI50 (EKVX NSCLC)?
Answer: 20.7 µM

Question: And the TGI (EKVX NSCLC)?
Answer: > 80.3 µM

Question: What about the GI50 (HCC-2998 colon) of the same compound?
Answer: 6.61 µM

Question: And the TGI (HCC-2998 colon)?
Answer: 34.5 µM

Question: What about the GI50 (HCT-116 colon) of the same compound?
Answer: 0.0379 µM

Question: What about the TGI (HCT-116 colon) of the same compound?
Answer: 14.8 µM

Question: And the GI50 (HCT-15 colon)?
Answer: 0.143 µM

Question: What about the TGI (HCT-15 colon) of the same compound?
Answer: 25.1 µM

Question: And the GI50 (HL-60(TB) leukemia)?
Answer: 0.0468 µM

Question: And the TGI (HL-60(TB) leukemia)?
Answer: 2.48 µM

Question: What about the GI50 (HOP-62 NSCLC) of the same compound?
Answer: 7.25 µM

Question: What about the TGI (HOP-62 NSCLC) of the same compound?
Answer: > 66.9 µM

Question: What about the GI50 (HOP-92 NSCLC) of the same compound?
Answer: 0.25 µM

Question: What about the TGI (HOP-92 NSCLC) of the same compound?
Answer: 6.51 µM

Question: What about the GI50 (HS 578T breast) of the same compound?
Answer: 3.16 µM

Question: And the TGI (HS 578T breast)?
Answer: 97.9 µM

Question: What about the GI50 (HT29 colon) of the same compound?
Answer: 0.0423 µM

Question: And the TGI (HT29 colon)?
Answer: > 37.6 µM

Question: And the GI50 (IGROV1 ovarian)?
Answer: 5.9 µM

Question: And the TGI (IGROV1 ovarian)?
Answer: 49.8 µM

Question: What about the GI50 (K-562 leukemia) of the same compound?
Answer: 0.0576 µM

Question: And the TGI (K-562 leukemia)?
Answer: > 45.5 µM

Question: What about the GI50 (KM12 colon) of the same compound?
Answer: 0.545 µM

Question: What about the TGI (KM12 colon) of the same compound?
Answer: > 41.9 µM

Question: And the GI50 (LOX IMVI melanoma)?
Answer: 0.151 µM

Question: And the TGI (LOX IMVI melanoma)?
Answer: 13.6 µM

Question: What about the GI50 (M14 melanoma) of the same compound?
Answer: 0.0759 µM

Question: And the TGI (M14 melanoma)?
Answer: 14.8 µM

Question: What about the GI50 (MALME-3M melanoma) of the same compound?
Answer: 9.8 µM

Question: What about the TGI (MALME-3M melanoma) of the same compound?
Answer: 37.8 µM

Question: And the GI50 (MCF7 breast)?
Answer: 0.0465 µM

Question: And the TGI (MCF7 breast)?
Answer: 25.6 µM

Question: What about the GI50 (MDA-MB-231 breast) of the same compound?
Answer: 2.36 µM

Question: And the TGI (MDA-MB-231 breast)?
Answer: > 64 µM

Question: What about the GI50 (MDA-MB-435) of the same compound?
Answer: 0.133 µM

Question: What about the TGI (MDA-MB-435) of the same compound?
Answer: 3.81 µM

Question: What about the GI50 (MOLT-4 leukemia) of the same compound?
Answer: 0.109 µM

Question: And the TGI (MOLT-4 leukemia)?
Answer: 53.5 µM

Question: And the GI50 (NCI-H226 lung)?
Answer: 3.11 µM

Question: And the TGI (NCI-H226 lung)?
Answer: 10.3 µM

Question: What about the GI50 (NCI-H23 lung) of the same compound?
Answer: 0.913 µM

Question: And the TGI (NCI-H23 lung)?
Answer: 44.5 µM

Question: What about the GI50 (NCI-H460 lung) of the same compound?
Answer: 0.807 µM

Question: What about the TGI (NCI-H460 lung) of the same compound?
Answer: 12.6 µM

Question: And the GI50 (NCI-H522 lung)?
Answer: 0.0816 µM

Question: What about the TGI (NCI-H522 lung) of the same compound?
Answer: 9.06 µM

Question: And the GI50 (NCI/ADR-RES ovarian)?
Answer: 1.9 µM

Question: And the TGI (NCI/ADR-RES ovarian)?
Answer: > 60.9 µM

Question: What about the GI50 (OVCAR-3 ovarian) of the same compound?
Answer: 0.165 µM

Question: And the TGI (OVCAR-3 ovarian)?
Answer: 18.1 µM

Question: And the GI50 (OVCAR-4 ovarian)?
Answer: 0.659 µM

Question: And the TGI (OVCAR-4 ovarian)?
Answer: 19.4 µM

Question: What about the GI50 (OVCAR-5 ovarian) of the same compound?
Answer: 1.77 µM

Question: And the TGI (OVCAR-5 ovarian)?
Answer: 24.5 µM

Question: What about the GI50 (OVCAR-8 ovarian) of the same compound?
Answer: 0.298 µM

Question: What about the TGI (OVCAR-8 ovarian) of the same compound?
Answer: > 73.6 µM

Question: What about the GI50 (PC-3 prostate) of the same compound?
Answer: 1.35 µM

Question: And the TGI (PC-3 prostate)?
Answer: 27.1 µM

Question: What about the GI50 (RPMI-8226 leukemia) of the same compound?
Answer: 0.186 µM

Question: And the TGI (RPMI-8226 leukemia)?
Answer: 28.1 µM

Question: And the GI50 (RXF 393 renal)?
Answer: 0.559 µM

Question: What about the TGI (RXF 393 renal) of the same compound?
Answer: 12.3 µM

Question: What about the GI50 (SF-268 CNS) of the same compound?
Answer: 0.298 µM

Question: What about the TGI (SF-268 CNS) of the same compound?
Answer: 37.4 µM

Question: What about the GI50 (SF-295 CNS) of the same compound?
Answer: 3.15 µM

Question: And the TGI (SF-295 CNS)?
Answer: > 49.3 µM

Question: And the GI50 (SF-539 CNS)?
Answer: 0.117 µM

Question: And the TGI (SF-539 CNS)?
Answer: 16.6 µM

Question: What about the GI50 (SK-MEL-2 melanoma) of the same compound?
Answer: 16.2 µM

Question: What about the TGI (SK-MEL-2 melanoma) of the same compound?
Answer: 73 µM

Question: What about the GI50 (SK-MEL-28 melanoma) of the same compound?
Answer: 3.58 µM

Question: And the TGI (SK-MEL-28 melanoma)?
Answer: 22.4 µM

Question: And the GI50 (SK-MEL-5 melanoma)?
Answer: 0.33 µM

Question: What about the TGI (SK-MEL-5 melanoma) of the same compound?
Answer: 12.2 µM

Question: And the GI50 (SK-OV-3 ovarian)?
Answer: 20 µM

Question: What about the TGI (SK-OV-3 ovarian) of the same compound?
Answer: > 100 µM

Question: What about the GI50 (SN12C renal) of the same compound?
Answer: 0.482 µM

Question: What about the TGI (SN12C renal) of the same compound?
Answer: 40.7 µM

Question: And the GI50 (SNB-19 CNS)?
Answer: 10.5 µM

Question: What about the TGI (SNB-19 CNS) of the same compound?
Answer: > 100 µM

Question: What about the GI50 (SNB-75 CNS) of the same compound?
Answer: 0.601 µM

Question: What about the TGI (SNB-75 CNS) of the same compound?
Answer: 59.9 µM

Question: What about the GI50 (SR leukemia) of the same compound?
Answer: 0.0642 µM

Question: What about the TGI (SR leukemia) of the same compound?
Answer: 19.2 µM

Question: And the GI50 (SW-620 colon)?
Answer: 0.0395 µM

Question: And the TGI (SW-620 colon)?
Answer: 15.7 µM

Question: What about the GI50 (T-47D breast) of the same compound?
Answer: 15.7 µM

Question: And the TGI (T-47D breast)?
Answer: 51.8 µM

Question: And the GI50 (TK-10 renal)?
Answer: 14.5 µM

Question: What about the TGI (TK-10 renal) of the same compound?
Answer: 46.6 µM

Question: And the GI50 (U251 CNS)?
Answer: 9.12 µM

Question: What about the TGI (U251 CNS) of the same compound?
Answer: 28.4 µM

Question: What about the GI50 (UACC-257 melanoma) of the same compound?
Answer: 15 µM

Question: What about the TGI (UACC-257 melanoma) of the same compound?
Answer: 50.2 µM

Question: What about the GI50 (UACC-62 melanoma) of the same compound?
Answer: 2.53 µM

Question: And the TGI (UACC-62 melanoma)?
Answer: 23.7 µM

Question: What about the GI50 (UO-31 renal) of the same compound?
Answer: 0.154 µM

Question: And the TGI (UO-31 renal)?
Answer: 12.8 µM
